Source: patent US7718808B2, “Thiazole derivatives” (Kyowa Hakko Kirin Co., Ltd., priority 2003, dated 2010)

Tests used:
[1] = target: T1, Rat Adenosine A2A Receptor (Rattus norvegicus, UniProt P30543); experiment: Adenosine A2A receptor binding test (3H-CGS21680 binding, rat corpus striatum); settings: test compound 10^−7 mol/L, 25° C., 120 minutes, read-out: Rat Adenosine A2A Receptor Binding Inhibition rate (%) (10^−7 mol/L)
T1 construct: tissue Nippon SLC (animals); host or cells: rat (SD) corpus striatum membrane homogenate
Protocol: This test was carried but in a similar manner to a Bruns et al's method (Molecular Pharmacology, Vol. 29, p. 331, 1986).
Corpus striatum of rats (SD rat, by Nippon SLC) was suspended in 50 mL of an ice-cooled 50 mmol/L tris(hydroxymethyl)aminomethane hydrochloride (Tris-HCl) buffer (pH 7.7) using a polytron homogenizer (by Kinematica). The resulting homogenate was centrifuged (48,000×g, 20 minutes), and the resulting precipitate was again suspended by adding the same amount of a 50 mmol/L Tris-HCl buffer, followed by centrifugation under the same condition. The resulting final precipitate was suspended by adding a 50 mmol/L Tris-HCl buffer [containing 10 mmol/L magnesium chloride, adenosine deaminase 0.02 units/mg tissue (by Sigma)] so that the tissue concentration was 5 mg (wet weight)/mL.
To 100 μL of the above purified tissue suspension, were added 80 μL (final concentration […]) of tritium-labeled CGS-21680 {^3H-2-[p-(2-carboxyethyl)phenethylamino]-5′-(N-ethylcarboxamido)-adenosine: 40 curies/mmol; by New England Nuclear [The Journal of Pharmacology and Experimental Therapeutics, Vol. 251, p. 888, 1989]} and 20 μL of a test compound solution (10^−7 mol/L; a solution of a test compound in DMSO was diluted with Tris-HCl buffer). The resulting mixture was allowed to stand at 25° C. for 120 minutes, followed by rapid suction filtration through a glass fiber paper filter (GF/C; by Whatman). The filter was immediately washed three times with 200 μL of an ice-cooled 50 mmol/L Tris-HCl buffer. The glass fiber paper filter was transferred into a vial, Microscinti (by Perkin Elmer) was added thereto, and the radioactivity level was measured with Topcount (by Perkin Elmer).
The inhibition rate of the test compound to the adenosine A2A receptor binding (^3H-CGS21680 binding) was calculated according to the following formula.
Amount of total binding means the ^3H-CGS21680 binding radioactivity content in the absence of the test compound. Amount of non-specific binding means the ^3H-CGS21680 binding radioactivity content in the presence of 100 μmol/L cyclopentyladenosine (CPA; by Sigma). Amount of binding in the presence of test compound means the ^3H-CGS21680 binding radioactivity content in the presence of 10^−7 mol/L of the test compound.

[2] = test system: MPTP-treated common marmoset; experiment: Effect in Parkinson's disease model (MPTP-treated common marmoset), motor disability score; type: in vivo; settings: oral administration, 10 mg/kg; MPTP-treated common marmosets; scored at 30 minute intervals for 8 hours
Description: Parkinson's disease is a disorder based on the degeneration and lack of dopaminergic neurons in the nigro-striatal pathway. In the primates, treatment with a dopamine neurotoxin, that is MPTP, causes selective degeneration and lack of the dopaminergic neurons in the nigro-striatal pathway and causes a symptom such as akinesia and muscular rigidity. The MPTP-treated primate is known as a Parkinson's disease model (Proceedings of the National Academy of Science USA, Vol. 80, p. 4546, 1983). Also, common marmoset belongs to Anthropoidea, and is known to have parkinsonism caused by MPTP like others of Anthropoidea (Neuroscience Letter, Vol. 57, p. 37, 1985).
The experiment was carried out using four male and female common marmosets of 2 or 3 years old (body weight, 300 to 375 g, by Nippon Clea) per group. […] The motor disability of the animals before the administration of the test compound was scored, and this was compared with the motor disability score after orally administration of the test compound (Compound 1) in a dose of 10 mg/kg. As, the parkinsonian symptoms, the motor disabilities were scored at intervals of 30 minutes for 8 hours, by observation through a one-way viewing window. The spontaneous locomotor activity was measured at intervals of 30 minutes for 12 hours by a computer-controlled automatic measuring apparatus. […]

T1 sequence (P30543 whole entry): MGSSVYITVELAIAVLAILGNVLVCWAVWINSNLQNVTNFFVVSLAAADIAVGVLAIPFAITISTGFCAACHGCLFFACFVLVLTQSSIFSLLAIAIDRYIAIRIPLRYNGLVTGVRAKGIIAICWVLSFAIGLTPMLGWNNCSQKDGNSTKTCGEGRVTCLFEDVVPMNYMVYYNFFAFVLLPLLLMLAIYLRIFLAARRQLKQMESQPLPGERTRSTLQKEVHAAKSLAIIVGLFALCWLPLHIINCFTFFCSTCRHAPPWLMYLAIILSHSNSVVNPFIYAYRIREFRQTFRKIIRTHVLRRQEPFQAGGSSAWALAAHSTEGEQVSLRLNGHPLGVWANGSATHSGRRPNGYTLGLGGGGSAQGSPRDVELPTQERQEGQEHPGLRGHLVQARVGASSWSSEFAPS

inhibition at 0.1 µM [1] [%] | melting point [°C] | SMILES | remission of the parkinsonian symptoms (motor disability score before vs after administration) [2]
90 |  | O=C(Nc1nc(-c2ccco2)c(-c2ccncc2)s1)c1ccncc1 [Compound 1, N-[4-(2-Furyl)-5-(4-pyridyl)thiazol-2-yl]pyridine-4-carboxamide] | effective for remission of the parkinsonian symptoms
90 | 233 to 235 | O=C(Nc1nc(-c2ccco2)c(C(=O)C2CCOCC2)s1)c1ccc(Cl)nc1 [Compound 502, 2-Chloro-N-[4-(2-furyl)-5-(tetrahydropyran-4-ylcarbonyl)thiazol-2-yl]pyridine-5-carboxamide] | 
88 | 196 to 198 | O=C(Nc1nc(-c2ccco2)c(C(=O)C2CCOCC2)s1)c1ccco1 [Compound 511, N-[4-(2-Furyl)-5-(tetrahydropyran-4-ylcarbonyl)thiazol-2-yl]furan-2-carboxamide] | 
95 | 222 to 223 | N#Cc1ccc(C(=O)Nc2nc(-c3ccco3)c(C(=O)C3CCOCC3)s2)o1 [Compound 515, 5-Cyano-N-[4-(2-furyl)-5-(tetrahydropyran-4-ylcarbonyl)thiazol-2-yl]furan-2-carboxamide] | 
